Data on two compounds can be found in article PMC12363792 (bioRxiv, 2025).

Experiment [1] deals with CA1 hippocampal neurons. The experiment can be described thus: 2-photon FRET cAMP imaging in acute brain slices. The experiment is classed as cell-based, mice. The following applies: bath application 100 nM, CaMKIIα-Cre:CAMPER+/− slices.
Experiment [2] deals with D2R (Homo sapiens, UniProt P14416). It counts as cell-based. As to conditions: D2R vs D3R.
Experiment [3] relates to D2R. The following applies: cited from earlier work.

Chain of D2R (Homo sapiens, UniProt P14416) (P14416 whole entry): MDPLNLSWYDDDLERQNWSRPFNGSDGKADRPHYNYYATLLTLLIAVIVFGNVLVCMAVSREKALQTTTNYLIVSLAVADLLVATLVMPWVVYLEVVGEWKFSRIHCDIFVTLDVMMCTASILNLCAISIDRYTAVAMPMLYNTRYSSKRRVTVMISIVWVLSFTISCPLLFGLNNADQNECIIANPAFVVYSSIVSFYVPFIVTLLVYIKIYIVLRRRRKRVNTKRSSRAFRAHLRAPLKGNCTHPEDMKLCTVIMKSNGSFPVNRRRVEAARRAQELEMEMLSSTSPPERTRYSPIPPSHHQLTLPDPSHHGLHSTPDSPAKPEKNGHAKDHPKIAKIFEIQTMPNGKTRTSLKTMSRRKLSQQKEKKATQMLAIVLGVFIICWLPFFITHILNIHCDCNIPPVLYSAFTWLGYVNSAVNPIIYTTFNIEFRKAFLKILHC

Turning to `COc1ccc(OCCN2CCN(C(=O)c3cc4ccccc4[nH]3)CC2)cc1` [ML417], in experiment [1], the “agonist-induced cAMP response” value is “increase in cAMP production”.
On to `CN[C@@H]1Cc2cccc3[nH]c(=O)n(c23)C1` [sumanirole], for which the “activation of GoA via D2R compared to D3R” value in experiment [2] is reported as “five”. Moreover, the “agonist-induced cAMP response” value in experiment [1] is listed as “robust inhibition of cAMP”. Also, in experiment [3], the “affinity for D2R over D3R” value was 200 fold.
